Measured values from patent US20130136839A1, “Taste-Masking Compositions, Sweetener Compositions and Consumable Product Compositions Containing the Same” (Nutrinova Nutrition Specialties & Food Ingredients GmbH, priority 2011, published 2013).

Legend:
Type in all cases: in vivo, human
[1] = tested on: panel of 4 trained sensory evaluators; assay: Taste and spit assay, descriptive taste impression versus base samples, panel of 4 trained sensory evaluators (Examples 3 to 31); conditions: acesulfame K 350 wppm
Procedure: (§1) All tests were conducted under controlled and standardized conditions.
(§2) The samples were prepared by a trained laboratory assistant.
35 ml of the samples were served at room temperature in clear plastic cups.
The following samples comprising a composition of the invention were tested for their ability to improve the taste of artificial sweeteners.
All samples were tested in duplicate and evaluated at least 3 different concentrations in comparison to 3 base samples (samples 1 to 3).
The panelists were asked to evaluate and to describe the taste impression of the samples 4 to 13 containing a sweetener composition comprising acesulfame potassium, sucralose and a composition of the invention, e.g. bitter aftertaste, creaminess, fullness and character of the sweeteners in each case in comparison to the base samples 1 to 3.
The results of the taste and spit assay are based in each case on a qualitative evaluation of the differences between the samples.

panelists [2] = assay: Naringin at non-detectable concentration tested in acesulfame K and acesulfame K/sucralose solutions (Example 34); conditions: naringin 1.6 wppm (not detectable) in acesulfame K (350 ppm) solution and in acesulfame K (350 wppm)/sucralose (80 wppm) solution; all panelists
From the text: The method further comprises the step of determining whether the at least one flavoring, when present in the sweetener composition at or below the flavor threshold level, is capable of modifying, masking, reducing and/or suppressing the unpleasant off-taste of the sweetener/sweetness enhancer in the sweetener composition. This determination may be made by employing suitable methods known in the art. For example the determination may be made by utilizing a taster or a taste panel. The taster may sample the prepared sweetener composition and make a determination as to whether the off-taste has been modified, masked, reduced, and/or suppressed. If so, then the particular flavoring is capable of modifying, masking, reducing, and/or suppressing unpleasant off-tastes. Preferably, the flavor of the flavoring is not detectable, e.g., by taste, in the sweetener composition, the sweetness enhancer composition, and/or the consumable product composition.
Then, naringin was tested at this concentration in an aceslfame K (350 ppm) solution and in an acesulfame K (350 wppm)/sucralose (80 wppm) solution.

panelists [3] = assay: Dilution of naringin in water until its taste is no longer detectable (Example 34); conditions: diluted in water
From the text: The method comprises the step of selecting at least one flavoring. The flavorings may be as discussed herein. The method may further comprise the step of diluting the at least one flavoring with a diluent to form a diluted composition to determine a flavor threshold level at which the flavor of the flavoring is not detectable, e.g., by taste, in the diluted composition. In order to make this determination, the diluted composition may be sampled, e.g., tasted, at various stages of dilution. As the diluted composition becomes more dilute, the flavor of the flavorant will become less recognizable or identifiable. The flavor threshold level is the point at which the flavor of the flavoring is no longer recognized or identified by a taster or taste panel. The method further comprises the step of adding at least one flavoring to a sweetener and/or sweetness enhancer to form a sweetener composition. The sweeteners and/or sweetness enhancers are discussed above. The sweeteners and/or sweetness enhancers may have an unpleasant off-taste associated therewith, as discussed above. Preferably, the flavoring is added to the sweetener and/or the sweetness enhancer at a level at or below the flavor threshold level.
Naringin was diluted in water until the diluted solution reached a concentration of 1.6 wppm. At this concentration, its taste was no longer detectable in water.

[4] = tested on: panel of 11 trained sensory evaluators; assay: Taste and spit assay with regard to sweetness in the aftertaste, panel of 11 trained sensory evaluators (Example 2); conditions: aqueous samples; 35 ml at 6.0-8.0 °C; aftertaste after 2 minutes; 11 panelists; qualitative, FIG. 2
Procedure: Air was constantly exchanged.
as §2
(§3) The panel used the sweetness scale anchored by three concentrations of sucrose:
(§4) Sweetness was assessed with the 1st sip (max. 30 ml, min of 15 ml) and scored in the aftertaste (after 2 minutes).
(§5) All samples were tested in duplicate.

[5] = tested on: panel of 4 trained sensory evaluators; assay: Taste and spit assay with regard to sweetness in the aftertaste, panel of 4 trained sensory evaluators (Example 33); conditions: 35 ml at 6.0-8.0 °C; aftertaste after 2 minutes; all 4 panelists; qualitative
Procedure: as §1, §2, §3, §4, §5
The samples with the same composition as in Example 1 have been assessed: […]

[6] = composition with amino acids: benzaldehyde 0.02 wppm in sample 13 (sucralose 75 wppm), quinine 0.01 wppm in sample 32 (sucralose 80 wppm)
[7] = composition without amino acids: benzaldehyde 0.02 wppm in sample 12, quinine 0.01 wppm in sample 31, sucralose 80 wppm

With delta-undecalactone the “taste contribution of the lactone to the total composition” value ([1]; delta-undecalactone 0.0388 wppm in sample 14 with naringin, 4-methoxy salicylaldehyde, syringaldehyde, whiskey lactone, sucralose 80 wppm, all panelists) was “not being too volatile and as adding a creamy taste, and as improving the total composition”.

With C=C[C@H]1C[N@@]2CC[C@H]1C[C@H]2[C@H](O)c1ccnc2ccc(OC)cc12 [Quinine, quinine] the “further effect added to the composition by the substance used below its threshold” value (“further effect added to the composition” for short) [1, 6] was “does not add anything to the effects of the composition” and the “further effect added to the composition” value [1, 7] was “does not add anything to the effects of the composition”.

With C[C@@H]1O[C@@H](O[C@H]2[C@H](Oc3cc(O)c4c(c3)O[C@H](c3ccc(O)cc3)CC4=O)O[C@H](CO)[C@@H](O)[C@@H]2O)[C@H](O)[C@H](O)[C@H]1O [Naringin] the “effect on the bitter aftertaste of acesulfame K” value (panelists [2]) was “improve the bitter aftertaste of acesulfame K” and the “concentration at which its taste was no longer detectable in water” value (panelists [3]) was 1.6 wppm.

In the case of saccharose [Sample 1], the “sweetness in the aftertaste” value [4] is reported as “less sweet in the aftertaste than acesulfame potassium and sucralose” and the “sweetness in the aftertaste” value [5] is reported as “less sweet in the aftertaste compared to acesulfame potassium and sucralose”.

O=Cc1ccccc1 [Benzaldehyde, benzaldehyde] was tested, and the “further effect added to the composition” value [1, 6] was “did not add any further effect to the composition of the invention” and the “further effect added to the composition” value [1, 7] was “did not add any further effect to the composition of the invention”.
